Laboratory results published in publication PMC12598616, “Design and optimization of caspase-1-responsive fluorescent probes for pyroptosis imaging and anti-pyroptosis drug screening” (Chemical Science, 2025).

What was measured:
caspase-8 = assay: Selectivity of probes: caspase-8; assay type: biochemical, human; details: caspase-8 1 μg/mL, 37 °C, 2 h, λex 510 nm, λem 585 nm
From the text: The resin used for SPPS was purchased from GL Biochem (Shanghai, China). Lipopolysaccharide (LPS, L2630), Nigericin and ATP (11140965001) were purchased from Merck (Shanghai, China) and Invitrogen (Shanghai, China), respectively. Cell culture plates were sourced from Wuxi NEST Biotechnology. Recombinant human caspase-1, caspase-3, caspase-4, and caspase-8 were obtained from Abcam and MCE (Shanghai, China). Anti-cleaved caspase-1 antibody, anti-GAPDH antibody, and goat anti-Rabbit/anti-mouse lgG/HRP were purchased from CST (USA) and Beyotime […]
(Shanghai, China). […]
Medical College (ethical approval number ZJCLA-IACUC-20011003).
(also on this page, place not known: Wang,*f, Wang*abg Supplementary Information (SI) for Chemical Science. This journal is © The Royal Society of Chemistry 2025)
(1 picture or pasted object on this page, not shown here) […]
mixture was stirred for 3 h. […]
To investigate the sensitivity of the probes for caspase-1, varying concentration of caspase-1 (0, 0.2, 0.4, 0.6, 0.8, 1.0, 1.25, 1.5, 1.75, 2, 2.5, 3 U/mL) were incubated with FPy1 (5 μM), YPy1 (5 μM) and WPy1 (5 μM) respectively in caspase-1 assay buffer (50 mM HEPES, 50 mM NaCl, 0.1 % chaps, 5 % glycerol, 10 mM DTT, 10 mM EDTA) at 37 °C for 2 hours. Fluorescence spectra were recorded using Hitachi F-2700 spectrophotometer with an excitation at 510 nm (Photomultiplier voltage 700 V; Slit widths ex: 10 nm and em =5.0 nm). The fluorescence intensity of FPy1, YPy1 and WPy1 at 585 nm were plotted against the concentration of caspase-1, and a linear regression fitted from the corresponding concentration of caspase-1, and linear regression was applied to determine the slope k. The limit of detection (LoD) was calculated from 3σ/k, in which σ represents the standard deviation of 15 blank measurements. […]
The fluorescence intensity at 585 nm was measured on a Tecan Infinite M1000 Multi-function microplate reader (λex = 510 nm) at 37 °C every 2 minutes. The K M value of probes was determined from the Lineweaver-Burk plot. […]

Cas-1 in THP-1 cells = assay: Confocal fluorescence imaging of Cas-1 in THP-1 cells; assay type: cell-based; details: for intracellular fluorescence intensity, ATP stimulation / intracellular fluorescence intensity, Nig stimulation: LPS 1 μg/mL 4 h, probe 5 μM 1 h; for intracellular fluorescence intensity, ATP stimulation: then ATP 2 mM 0, 1, 2 h; for intracellular fluorescence intensity, Nig stimulation: then Nig 10 μM 0, 1, 2 h
Description: To assess the capability of FPy1 and YPy1 to monitor endogenous Cas-1, the classic NLRP3 inflammasome-mediated Cas-1 activation model was established in THP-1 cells. THP-1 cells were initially stimulated with LPS (1 μg mL^−1) for 4 h to prime the production of NLRP3 inflammasome-associated proteins. Subsequently, the cells were stimulated with Nigericin (Nig, 10 μM) or ATP (2 mM) for various durations to induce the activation of Cas-1 and the pyroptosis-related pathway. The THP-1 cells were further stained with FPy1 or Ypy1 (5 μM) for 1 h and imaged (Fig. 3a). […] Western blot (WB) analysis confirmed that, regardless of whether Nig or ATP was used as the stimulant, the level of activated Cas-1 was consistent with the fluorescence imaging results (Fig. S8a–d). […] Therefore, FPy1 may be a more suitable candidate for monitoring low caspase-1 levels in subsequent imaging studies. […] To investigate the distribution of FPy1 within cells, THP-1 cells were co-stained with FPy1 and commercially available organelle-tracking dyes, including Mito-Tracker Green (mitochondria), Golgi-Tracker Green (Golgi apparatus), Lyso-Tracker Green (lysosomes) and ER-Tracker Green (endoplasmic reticulum). All dyes were imaged in the green fluorescence channel to avoid overlap with the red emission of FPy1 (Fig. 3f–i). […] The corresponding Pearson's correlation coefficients for mitochondria, Golgi apparatus, lysosomes, and endoplasmic reticulum were 0.4954, 0.4320, 0.5682, and 0.4448, respectively. […] To further confirm the specificity of FPy1 for Cas-1 imaging in living cells, THP-1 cells with Cas-1 knockdown via siRNA were constructed. […]
Intracellular imaging with FPy1 in THP-1 cells
THP-1 cells were seeded in dishes and cultured overnight. After stimulation with LPS (1 μg/mL in RPMI 1640 medium) for 4 hours, the cells were further treated with Nig (10 μM) or ATP (2 mM) for 0, 1, 2 hours. The medium was then replaced with fresh medium with FPy1 (5 μM), and cells were incubated at 37 °C for 1 hour before being washed twice […]
with PBS. […]
After washing, the THP-1 cells were separately incubated with commercially available dyes targeting mitochondria (Mito-Tracker Green), lysosomes (Lyso-Tracker Green), endoplasmic reticulum (ER-Tracker Green), and Golgi apparatus (Golgi-Tracker Green) for 30 minutes. […]
Nucleus pulposus spheroid cultivation […]
Intracellular imaging in nucleus pulposus cells and 3D cell spheroids
The primary nucleus pulposus cells or 3D cell spheroids were seeded in dishes and cultured overnight. […]

Substance | fluorescence response to caspase-8 (caspase-8) | fluorescence increase relative to YPy1 (Cas-1 in THP-1 cells; 2 h of Nig or ATP stimulation, probe 5 μM) | intracellular fluorescence intensity, ATP stimulation (Cas-1 in THP-1 cells) | intracellular fluorescence intensity, Nig stimulation (Cas-1 in THP-1 cells)
–FLTDG– [FPy1, RhoB donor, hNR quencher] | almost no response | slightly higher than that of YPy1 | increased with prolonged stimulation time | increased with prolonged stimulation time
–YVADG– [YPy1, caspase-1-responsive FRET probe with recognition peptide –YVADG–; RhoB donor, hNR quencher] | almost no response | – | increased with prolonged stimulation time | increased with prolonged stimulation time
